The nature of assay [1]: Ionotropic effect in guinea pig ventricle papillary muscles assessed as lengthening of 90% repolarized cardiac action potential duration time at 10^-6 M by microelectrode technique relative to untreated control (reference value: 209 to 222 APD50 ms) in presence of 3.1 x 10^-6 M inward rectifier current blocker BaCl2. It counts as functional, Cavia porcellus.
A short description of assay [2]: Ionotropic effect in guinea pig ventricle papillary muscles assessed as lengthening of 50% repolarized cardiac action potential duration time at 10^-5 M by microelectrode technique relative to untreated control (reference value: 180 to 192 APD50 ms) in presence of 3.1 x 10^-6 M inward rectifier current blocker BaCl2. The class given is functional, Cavia porcellus.

The nature of assay [3]: Ionotropic effect in guinea pig ventricle papillary muscles assessed as lengthening of 50% repolarized cardiac action potential duration time at 10^-6 M by microelectrode technique relative to untreated control (reference value: 180 to 192 APD50 ms) in presence of 3.1 x 10^-6 M inward rectifier current blocker BaCl2. It counts as functional, Cavia porcellus.
A short description of assay [4]: Ionotropic effect in guinea pig ventricle papillary muscles assessed as lengthening of 25% repolarized cardiac action potential duration time at 10^-4 M by microelectrode technique relative to untreated control (reference value: 120 to 131 APD25 ms) in presence of 3.1 x 10^-6 M inward rectifier current blocker BaCl2. The class given is functional, Cavia porcellus.

Assay [5] can be described thus: Ionotropic effect in guinea pig ventricle papillary muscles assessed as lengthening of 25% repolarized cardiac action potential duration time at 10^-7 M by microelectrode technique relative to untreated control (reference value: 120 to 131 APD25 ms) in presence of 3.1 x 10^-6 M inward rectifier current blocker BaCl2. The class given is functional, Cavia porcellus.

The nature of assay [6]: Ionotropic effect in guinea pig ventricle papillary muscles assessed as lengthening of 10% repolarized cardiac action potential duration time at 10^-5 M by microelectrode technique relative to untreated control (reference value: 52 to 54 APD10 ms) in presence of 3.1 x 10^-6 M inward rectifier current blocker BaCl2. It counts as functional, Cavia porcellus.
The nature of assay [7]: Ionotropic effect in guinea pig ventricle papillary muscles assessed as lengthening of 90% repolarized cardiac action potential duration time at 10^-4 M by microelectrode technique relative to untreated control (reference value: 209 to 222 APD50 ms) in presence of 1 x 10^-6 M IKr channel blocker Sotalol. It counts as functional, Cavia porcellus.
A short description of assay [8]: Ionotropic effect in guinea pig ventricle papillary muscles assessed as lengthening of 90% repolarized cardiac action potential duration time at 10^-5 M by microelectrode technique relative to untreated control (reference value: 209 to 222 APD50 ms) in presence of 1 x 10^-6 M IKr channel blocker Sotalol. The class given is functional, Cavia porcellus.
Assay [9] can be described thus: Ionotropic effect in guinea pig ventricle papillary muscles assessed as lengthening of 90% repolarized cardiac action potential duration time at 10^-6 M by microelectrode technique relative to untreated control (reference value: 209 to 222 APD50 ms) in presence of 1 x 10^-6 M IKr channel blocker Sotalol. The class given is functional, Cavia porcellus.
Assay [10] can be described thus: Ionotropic effect in guinea pig ventricle papillary muscles assessed as lengthening of 50% repolarized cardiac action potential duration time at 10^-4 M by microelectrode technique relative to untreated control (reference value: 180 to 192 APD50 ms) in presence of 1 x 10^-6 M IKr channel blocker Sotalol. The class given is functional, Cavia porcellus.
Assay [11] can be described thus: Ionotropic effect in guinea pig ventricle papillary muscles assessed as lengthening of 50% repolarized cardiac action potential duration time at 10^-6 M by microelectrode technique relative to untreated control (reference value: 180 to 192 APD50 ms) in presence of 1 x 10^-6 M IKr channel blocker Sotalol. The class given is functional, Cavia porcellus.
The nature of assay [12]: Ionotropic effect in guinea pig ventricle papillary muscles assessed as lengthening of 25% repolarized cardiac action potential duration time at 10^-7 M by microelectrode technique relative to untreated control (reference value: 120 to 131 APD25 ms) in presence of 1 x 10^-6 M IKr channel blocker Sotalol. The class given is functional, Cavia porcellus.
Assay [13] is described as follows: Ionotropic effect in guinea pig ventricle papillary muscles assessed as lengthening of 10% repolarized cardiac action potential duration time at 10^-7 M by microelectrode technique relative to untreated control (reference value: 52 to 54 APD10 ms) in presence of 1 x 10^-6 M IKr channel blocker Sotalol. It counts as functional, Cavia porcellus.
Assay [14] in a line: Ionotropic effect in guinea pig right ventricle papillary muscles assessed as contraction force at 10^-7 M by force transduction assay relative to untreated control (reference value: 100%) in presence of 1 x 10^-6 M IKr channel blocker Sotalol. The class given is functional, Cavia porcellus, Heart right ventricle.
Assay [15] in a line: Ionotropic effect in guinea pig ventricle papillary muscles assessed as lengthening of 50% repolarized cardiac action potential duration time at 10^-5 M by microelectrode technique relative to untreated control (reference value: 180 to 192 APD50 ms) in presence of 2 x 10^-5 M KATP channel blocker glibenclamide. It counts as functional, Cavia porcellus.
Assay [16] can be described thus: Ionotropic effect in guinea pig ventricle papillary muscles assessed as lengthening of 25% repolarized cardiac action potential duration time at 10^-6 M by microelectrode technique relative to untreated control (reference value: 120 to 131 APD25 ms) in presence of 2 x 10^-5 M KATP channel blocker glibenclamide. It counts as functional, Cavia porcellus.
Assay [17] can be described thus: Ionotropic effect in guinea pig ventricle papillary muscles assessed as lengthening of 25% repolarized cardiac action potential duration time at 10^-7 M by microelectrode technique relative to untreated control (reference value: 120 to 131 APD25 ms) in presence of 2 x 10^-5 M KATP channel blocker glibenclamide. It counts as functional, Cavia porcellus.
A short description of assay [18]: Ionotropic effect in guinea pig right ventricle papillary muscles assessed as contraction force at 10^-4 M by force transduction assay relative to untreated control (reference value: 100%) in presence of 2 x 10^-5 M KATP channel blocker glibenclamide. It counts as functional, Cavia porcellus, Heart right ventricle.
A short description of assay [19]: Ionotropic effect in guinea pig right ventricle papillary muscles assessed as contraction force at 10^-5 M by force transduction assay relative to untreated control (reference value: 100%) in presence of 2 x 10^-5 M KATP channel blocker glibenclamide. The class given is functional, Cavia porcellus, Heart right ventricle.
Assay [20] is described as follows: Ionotropic effect in guinea pig right ventricle papillary muscles assessed as contraction force at 10^-7 M by force transduction assay relative to untreated control (reference value: 100%) in presence of 2 x 10^-5 M KATP channel blocker glibenclamide. It counts as functional, Cavia porcellus, Heart right ventricle.
A short description of assay [21]: Ionotropic effect in guinea pig ventricle papillary muscles assessed as lengthening of 50% repolarized cardiac action potential duration time at 10^-6 M by microelectrode technique relative to untreated control (reference value: 132 to 176 APD50 ms). It counts as functional, Cavia porcellus, Papillary muscle.
Assay [22] is described as follows: Ionotropic effect in guinea pig ventricle papillary muscles assessed as lengthening of 25% repolarized cardiac action potential duration time at 10^-7 M by microelectrode technique relative to untreated control (reference value: 84 to 104 APD25 ms). It counts as functional, Cavia porcellus, Papillary muscle.
Assay [23] is described as follows: Ionotropic effect in guinea pig ventricle papillary muscles assessed as lengthening of […] cardiac action potential duration time at 10^-5 M by microelectrode technique relative to untreated control (reference value: 37 to 47 […] ms). It counts as functional, Cavia porcellus, Papillary muscle.
The nature of assay [24]: Ionotropic effect in guinea pig right ventricle papillary muscles assessed as contraction force at 10^-5 M by force transduction assay relative to untreated control (reference value: 100%). The class given is functional, Cavia porcellus, Papillary muscle.

Take `CCCOCCOC(=O)C1=C(C)NC=C([N+](=O)[O-])C1c1ccccc1OC(F)F` (centres undefined): the Time in [1] is given as 250.7 ms; in assay [2] it was 231 ms; in assay [3] it was 224 ms; in assay [4], 158 ms; in assay [5] it was 146.5 ms; in assay [6] it was 63.4 ms. Moreover, the Time came to 250.8 ms in assay [7]; 227.7 ms in assay [8]; 224 ms in assay [9]; 218.9 ms in assay [10]; 192 ms in assay [11]; 130 ms in [12]. Moreover, the Time is on record as 54.2 ms in [13]; 235 ms in assay [15]; 148 ms in assay [16]; 141 ms in assay [17]; 196 ms in assay [21]; 112.7 ms in [22]. Also, the Time in assay [23] was 46 ms. In addition, the Activity in assay [14] was 85%; in assay [18] it was 211%; in assay [19] it was 163%; in [20], 103%; in assay [24] it was 134%.

For the origin of these results see ChEMBL document CHEMBL2150950, “Effect of 4-aryl-2-methyl-5-nitro-1,4-dihydropyridine-3-carboxylates on the guinea pig papillary muscle and isolated human vena saphena magna that is used for coronary artery bypass grafting” (2011).
